Experimental data as given in US4342762A, “Basic ethers and pharmaceutical compositions containing the same” (Egyt Gyogyszervegyeszeti Gyar, priority 1979, dated 1982).

Key:
[1] = acute oral toxicity, graphic method of Litchfield-Wilcoxon, 4 days observation; details: mouse, in vivo; oral, 20 ml/kg, both sexes 18-24 g, 4 days observation
Protocol: The analgesic effect of the new compounds according to the invention was determined by the method of Wirth et al. (Wirth, W., Gosswald, R., Horlein. K., Risse, Kl. H., Kreiskott, H.: Arch. Int. Pharmacodyn. 115, 1; (1958)). 0.4 ml of 0.5% acetic acid was administered i.p. to white mice, and the characteristic "writhing" reactions were counted after 5 minutes. […] The results are given in Table I. The toxicity data determined on white mice of both sexes weighing 18-24 g belonging to the strain CFLP are also given. Administration was effected with an oral dose of 20 ml/kg. After treatment the animals were kept under observation for 4 days. The toxicity data (LD50 mg/kg) were determined by the graphic method of Litchfield-Wilcoxon [Litchfield, J.T., Wilcoxon, E. W., J Pharmacol. Exp. Therap. 96, 99; (1949)].

white mice [2] = experiment: analgesic effect, inhibition of acetic acid "writhing" reactions (Wirth et al.); format: in vivo; details: for ED50: Mus musculus, po, read-out: Analgesic effect ED50; for Analgesic effect Therap.index: therapeutic index
Protocol: The analgesic effect of the new compounds according to the invention was determined by the method of Wirth et al. (Wirth, W., Gosswald, R., Horlein. K., Risse, Kl. H., Kreiskott, H.: Arch. Int. Pharmacodyn. 115, 1; (1958)). 0.4 ml of 0.5% acetic acid was administered i.p. to white mice, and the characteristic "writhing" reactions were counted after 5 minutes. The compounds to be tested had been orally administered an hour before the administration of the acetic acid. The activity is expressed as a percentage of the inhibition referred to the data observed on the control group. The results are given in Table I. The toxicity data determined on white mice of both sexes weighing 18-24 g belonging to the strain CFLP are also given. Administration was effected with an oral dose of 20 ml/kg. After treatment the animals were kept under observation for 4 days. The toxicity data (LD50 mg/kg) were determined by the graphic method of Litchfield-Wilcoxon [Litchfield, J.T., Wilcoxon, E. W., J Pharmacol. Exp. Therap. 96, 99; (1949)].

white mice [3] = experiment: inhibition of maximal electroshock (MES) (Swinyard et al.); format: in vivo; details: for ED50: Mus musculus, oral, 1 hour before electroshock 50 Hz, 45 mA, 0.4 sec, total inhibition of tonic extensor convulsion; for Inhibition of MES Th. I.: therapeutic index
Protocol: (§1) The antiepileptic effect was investigated on white mice, after oral administration. The inhibition of maximal electroshock (MES) was determined by the method of Swinyard et al. [Swinyard et al. J. Pharmacol. Exp. Ther. 106, 319-330 (1952)]. White mice weighing 20-25 g were subjected to electric shock through corneal electrodes (Parameters: 50 Hz, 45 mA, 0.4 sec.). The total inhibition of the tonic extensor convulsion was considered as criterion of the anti-convulsive effect. The test-substance had been orally administered one hour before the electroshock. The inhibition of pentetrazole convulsion was determined on white mice by the modified method of Banziger and Hane [Banziger, R., Hane, L.D. Arch. Int. Pharmacodyn. 167, 245-249; (1967)]. I." stands for "therapeutic index."

white mice [4] = experiment: inhibition of pentetrazole convulsion (modified Banziger and Hane); format: in vivo; details: for ED50: Mus musculus, oral; for Inhibition of pentetrazole convulsion Th. I.: therapeutic index
Protocol: as §1

white mice [5] = experiment: inhibition of nicotine-lethality (Stone); format: in vivo; details: for ED50: Mus musculus, oral, 1 hour before 1.4 mg/kg nicotine
Protocol: The inhibition of nicotine-lethality was determined on white mice by the method of Stone [Stone, C. A., Mecklenburg, K. L., Torchiana, M. L., Arch. Int. Pharmacodyn.

mice = experiment: potentiating of hexobarbital-narcosis (Kaergaard); format: in vivo; details: for ED50: Mus musculus, iv, 40 mg/kg hexobarbital i.v., positive: sleeping period at least 2.5 times control; for Potentiating of narcosis Th.I.: therapeutic index
Protocol: (§2) The effect on the inhibition of the oriental activity (inhibition of the motility) was investigated on white mice in a Dews apparatus applied with 8 canals by the method of Borsy [Borsy, J., Csanyi, E., Lazar, I., Arc. Int. Pharmacodyn. 124, 1-2 (1960)]. After an oral pretreatment of 30 minutes the number of light-interruptions due to the movements of groups consisting of 3-3 mice was registered. The observation lasted for 30 minutes. The effect of the compounds exerted on the duration of hexobarbital-narcosis was tested by the method of Kaergaard [Kaergaard, N. C., Magnussen, M. P., Kampmann, E., Frey, H. H., Arc. Int. Pharmacodyn. 2, 170; (1967)]. Groups of animals consisting of 6-6 mice were treated.

white mice [6] = experiment: inhibition of motility, Dews apparatus (Borsy); format: in vivo; details: for ED50: Mus musculus, oral pretreatment 30 minutes, observation 30 minutes; for Inhibition of motility Th.I.: therapeutic index
Protocol: as §2

In the case of `CC(COC1(Cc2ccccc2)CC2CCC1(C)C2(C)C)CN(C)C` (racemic) [Example 2, (±)-2-benzyl-2-(3'-dimethylamino-2'-methylpropoxy)-1,7,7-trimethyl-bicyclo(2,2,1) heptane], the LD50 at 96 h [1] is reported as 1700 mg/kg, the ED50 (white mice [2]) is reported as 85 mg/kg and the “Analgesic effect Therap.index” value (white mice [2]) is reported as 20.0. The ED50 (white mice [3]) was 120 mg/kg, the “Inhibition of MES Th. I.” value (white mice [3]) was 14.2 and the ED50 (white mice [4]) was 88 mg/kg. For the same compound, the “Inhibition of pentetrazole convulsion Th. I.” value (white mice [4]) was 19.3, the ED50 (white mice [5]) was 20 mg/kg and the “Inhibition of nicotine-lethality Therapeutic index” value (white mice [5]) was 85,0. The ED50 (mice) was 15 mg/kg and the “Potentiating of narcosis Th.I.” value (mice) was 113.3.
In the case of `CN(C)CCCOC1(Cc2ccccc2)CC2CCC1(C)C2(C)C` (racemic) [Example 1, (±)-2-benzyl-2-(3'-dimethylaminopropoxy)-1,7,7-trimethyl-bicyclo(2,2,1)heptane], the LD50 at 96 h [1] is reported as 1600 mg/kg, the ED50 (white mice [2]) is reported as 120 mg/kg and the “Analgesic effect Therap.index” value (white mice [2]) is reported as 13.3. The ED50 (white mice [3]) was 130 mg/kg, the “Inhibition of MES Th. I.” value (white mice [3]) was 12.3 and the ED50 (white mice [5]) was 38 mg/kg. For the same compound, the “Inhibition of nicotine-lethality Therapeutic index” value (white mice [5]) was 42.1, the ED50 (white mice [6]) was 110 mg/kg and the “Inhibition of motility Th.I.” value (white mice [6]) was 14.5. The ED50 (mice) was 90 mg/kg and the “Potentiating of narcosis Th.I.” value (mice) was 17.7.
With `CCN(CC)CCOC1(Cc2ccccc2)CC2CCC1(C)C2(C)C` (single isomer, unassigned) [Example 8, D-(+)-2-benzyl-2-(2'-diethylaminoethoxy)-1,7,7-trimethyl-bicyclo(2,2,1)heptane] the LD50 at 96 h [1] was 850 mg/kg, the ED50 (white mice [2]) was 45 mg/kg and the “Analgesic effect Therap.index” value (white mice [2]) was 18.9. The ED50 (white mice [3]) was 30 mg/kg, the “Inhibition of MES Th. I.” value (white mice [3]) was 28.3 and the ED50 (white mice [4]) was 20 mg/kg. For the same compound, the “Inhibition of pentetrazole convulsion Th. I.” value (white mice [4]) was 42.5, the ED50 (white mice [5]) was 11 mg/kg and the “Inhibition of nicotine-lethality Therapeutic index” value (white mice [5]) was 77.3. The ED50 (white mice [6]) was 60 mg/kg, the “Inhibition of motility Th.I.” value (white mice [6]) was 14.2 and the ED50 (mice) was 60 mg/kg. The “Potentiating of narcosis Th.I.” value (mice) was 14.2.
In the case of `CN(C)CCCOC1(Cc2ccccc2)CC2CCC1(C)C2(C)C` (single isomer, unassigned) [Example 7, D-(-)-2-benzyl-2-(3'-dimethylaminopropoxy)-1,7,7-trimethyl-bicyclo(2,2,1)heptane], the LD50 at 96 h [1] is reported as 1200 mg/kg, the ED50 (white mice [2]) is reported as 70 mg/kg and the “Analgesic effect Therap.index” value (white mice [2]) is reported as 17.1. For the same compound, the ED50 (white mice [3]) was 56 mg/kg, the “Inhibition of MES Th. I.” value (white mice [3]) was 21.4 and the ED50 (white mice [4]) was 66 mg/kg. For the same compound, the “Inhibition of pentetrazole convulsion Th. I.” value (white mice [4]) was 18.2, the ED50 (white mice [5]) was 25 mg/kg and the “Inhibition of nicotine-lethality Therapeutic index” value (white mice [5]) was 48.0. For the same compound, the ED50 (white mice [6]) was 90 mg/kg and the “Inhibition of motility Th.I.” value (white mice [6]) was 13.3.
